Here are results for three compounds from PMC8443597, “A prostate-specific membrane antigen activated molecular rotor for real-time fluorescence imaging” (Nature Communications, 2021).

pIC50: −log10 of the molar value.

The target of assay [1] is T1, prostate-specific membrane antigen (PSMA) (Homo sapiens, UniProt Q04609).
T1 construct: gene FOLH1; extracellular domain of human PSMA (rhPSMA; amino acids 44–750)
In words: X-ray crystal structure ([…] Å); fluorescence saturation binding; IC50 from […]H-NAAG radioenzymatic assay. The format is biochemical.

For assay [2], the target named is T1, prostate-specific membrane antigen (PSMA). Briefly: fluorescence saturation binding ([…]) with rhPSMA; IC50 from […]H-NAAG radioenzymatic assay. In kind it is biochemical.

Usually pIC50 stands for −log10 of the IC50, conventionally taken in molar units. Higher therefore signals a low IC50.

T1 sequence (Q04609 44-750): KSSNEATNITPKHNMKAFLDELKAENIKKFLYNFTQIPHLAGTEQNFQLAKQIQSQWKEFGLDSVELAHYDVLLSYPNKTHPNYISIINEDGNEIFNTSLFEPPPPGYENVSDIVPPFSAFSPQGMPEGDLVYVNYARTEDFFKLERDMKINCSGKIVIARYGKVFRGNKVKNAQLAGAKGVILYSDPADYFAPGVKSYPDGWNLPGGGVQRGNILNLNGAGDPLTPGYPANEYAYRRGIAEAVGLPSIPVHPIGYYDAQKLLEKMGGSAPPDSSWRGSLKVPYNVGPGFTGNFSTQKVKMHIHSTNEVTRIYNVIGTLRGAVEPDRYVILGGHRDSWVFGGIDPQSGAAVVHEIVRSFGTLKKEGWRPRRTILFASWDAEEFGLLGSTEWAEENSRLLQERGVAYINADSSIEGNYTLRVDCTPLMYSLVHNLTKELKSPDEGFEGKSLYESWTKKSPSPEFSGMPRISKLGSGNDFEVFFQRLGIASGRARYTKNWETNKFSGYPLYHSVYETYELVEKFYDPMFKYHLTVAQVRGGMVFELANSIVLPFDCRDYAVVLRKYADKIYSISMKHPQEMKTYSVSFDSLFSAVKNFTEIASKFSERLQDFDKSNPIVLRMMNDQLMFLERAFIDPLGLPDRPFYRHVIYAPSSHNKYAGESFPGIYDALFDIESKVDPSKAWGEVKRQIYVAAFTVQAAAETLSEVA

Turning to `COC(=O)CCN1CCCc2cc(-c3ccc(C=C(C#N)C(=O)NCCCC[C@H](NC(=O)N[C@@H](CCC(=O)O)C(=O)O)C(=O)O)s3)ccc21` [Glu-490, (((S)-1-carboxy-5-(2-cyano-3-(5-(1-(3-methoxy-3-oxopropyl)-1,2,3,4-tetrahydroquinolin-6-yl)thiophen-2-yl)acrylamido)pentyl)carbamoyl)-L-glutamic acid], in assay [1], the pIC50 is 10.20. In assay [2], `COC(=O)CCN1CCCc2cc(C=C(C#N)C(=O)NCCCC[C@H](NC(=O)N[C@@H](CNC(=O)C(=O)O)C(=O)O)C(=O)O)ccc21` [ODAP-436, (4 S,8 S)-15-cyano-16-(1-(3-methoxy-3-oxopropyl)-1,2,3,4-tetrahydroquinolin-6-yl)-1,6,14-trioxo-2,5,7,13-tetraazahexadec-15-ene-1,4,8-tricarboxylic acid] had a pIC50 of 9.93. Same read-out and setting: under `COC(=O)CCN1CCCc2cc(-c3ccc(C=C(C#N)C(=O)NCCCC[C@H](NC(=O)N[C@@H](CNC(=O)C(=O)O)C(=O)O)C(=O)O)s3)ccc21` [ODAP-490, (4 S,8 S)-15-cyano-16-(5-(1-(3-methoxy-3-oxopropyl)-1,2,3,4-tetrahydroquinolin-6-yl)thiophen-2-yl)-1,6,14-trioxo-2,5,7,13-tetraazahexadec-15-ene-1,4,8-tricarboxylic acid] stands 10.00.
